Key:
Format in all cases: biochemical
Pim-2 = Pim-2 (Homo sapiens (Human), UniProt Q9P1W9); assay: Pim-2 kinase assay; conditions: 1 mM ATP, fluorescein-labeled CREBtide peptide substrate; read-out: Pim2 IC50
Outline: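 TR-FRET assay: 1 nM Pim-2 with 0.05 μM fluorescein-CREBtide and 1 mM ATP in Tris pH 7.5, 5 mM MgCl2, 5 mM DTT, 2 h at 25 °C. EDTA stop, then Tb-anti-pCREB Ser133 antibody for 30 min before reading.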

Pim-1 = Pim-1 (Homo sapiens (Human), UniProt P11309); assay: Pim-1 kinase assay; conditions: 1 mM ATP, biotin-labeled BAD peptide substrate; read-out: Pim1 IC50
Chain of Pim-1 (P11309 whole entry): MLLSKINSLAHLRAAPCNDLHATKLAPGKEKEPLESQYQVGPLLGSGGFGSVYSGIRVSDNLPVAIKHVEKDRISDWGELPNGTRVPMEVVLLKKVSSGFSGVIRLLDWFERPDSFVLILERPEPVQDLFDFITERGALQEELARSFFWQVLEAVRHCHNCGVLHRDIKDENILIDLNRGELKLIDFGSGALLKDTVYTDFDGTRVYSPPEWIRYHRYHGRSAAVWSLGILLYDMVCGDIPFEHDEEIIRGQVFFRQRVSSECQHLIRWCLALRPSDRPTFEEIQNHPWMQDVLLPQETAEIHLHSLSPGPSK
Outline: (§1)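 Biotin-BAD peptide ([…]) phosphorylated with 1 mM ATP by 2.5 pM Pim-1 or 1.25 pM Pim-3, 1 h at 25 °C in Tris pH 7.5, MgCl2, DTT buffer. EDTA stop with anti-phospho-BAD (Ser112) antibody and AlphaScreen streptavidin donor/Protein-A acceptor beads; signal read after 1 h dark incubation.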

Pim-3 = Pim-3 (Homo sapiens (Human), UniProt Q86V86); assay: Pim-3 kinase assay; conditions: 1 mM ATP, biotin-labeled BAD peptide substrate; read-out: Pim3 IC50
Outline: as §1

Chain of Pim-2 (Q9P1W9 whole entry): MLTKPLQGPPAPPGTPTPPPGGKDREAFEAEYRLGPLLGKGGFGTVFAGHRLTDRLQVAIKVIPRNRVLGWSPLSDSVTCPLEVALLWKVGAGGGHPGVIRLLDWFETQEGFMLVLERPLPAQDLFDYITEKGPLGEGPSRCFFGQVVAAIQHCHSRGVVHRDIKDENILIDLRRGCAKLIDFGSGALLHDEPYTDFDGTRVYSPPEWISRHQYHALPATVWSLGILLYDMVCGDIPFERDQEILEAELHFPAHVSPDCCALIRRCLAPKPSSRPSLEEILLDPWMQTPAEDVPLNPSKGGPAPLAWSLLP

Row | SMILES | IC50 (Pim-2) [nM] | IC50 (Pim-1) [nM] | IC50 (Pim-3) [nM]
1 | CC(C)c1cnc2c(C(=O)Nc3cnccc3N3C[C@@H](N)[C@@H](n4ccnn4)[C@@H](C)C3)c(N)oc2c1 [Example 102, 2-Amino-N-{4-[(3R,4S,5S)-3-amino-5-methyl-4-(1H-1,2,3-triazol-1-yl)piperidin-1-yl]pyridin-3-yl}-6-isopropylfuro[3,2-b]pyridine-3-carboxamide] | 10 to 100 | ≤ 10 | ≤ 10
2 | COC1CCN(Cc2cnc3c(C(=O)Nc4cnccc4N4C[C@@H](N)C[C@@H](C(F)(F)F)C4)c(N)oc3c2)C1 (stereo partly drawn) [Example 103, 2-Amino-N-{4-[(3S,5R)-3-amino-5-(trifluoromethyl)piperidin-1-yl]pyridin-3-yl}-6-[(3-methoxypyrrolidin-1-yl)methyl]furo[3,2-b]pyridine-3-carboxamide] | 10 to 100 | ≤ 10 | ≤ 10
3 | CCOC1CCN(Cc2cnc3c(C(=O)Nc4cnccc4N4C[C@@H](N)C[C@@H](C(F)(F)F)C4)c(N)oc3c2)C1 (stereo partly drawn) [Example 104, 2-Amino-N-{4-[(3S,5R)-3-amino-5-(trifluoromethyl)piperidin-1-yl]pyridin-3-yl}-6-[(3-ethoxypyrrolidin-1-yl)methyl]furo[3,2-b]pyridine-3-carboxamide] | 10 to 100 | ≤ 10 | ≤ 10
4 | Nc1oc2cc(CN3CC[C@@H](F)C3)cnc2c1C(=O)Nc1cnccc1N1C[C@@H](N)C[C@@H](C(F)(F)F)C1 [Example 105, 2-Amino-N-{4-[(3S,5R)-3-amino-5-(trifluoromethyl)piperidin-1-yl]pyridin-3-yl}-6-{[(3R)-3-fluoropyrrolidin-1-yl]methyl}furo[3,2-b]pyridine-3-carboxamide] | 10 to 100 | ≤ 10 | ≤ 10
5 | Nc1oc2cc(CN3CC[C@H](F)C3)cnc2c1C(=O)Nc1cnccc1N1C[C@@H](N)C[C@@H](C(F)(F)F)C1 [Example 106, 2-Amino-N-{4-[(3S,5R)-3-amino-5-(trifluoromethyl)piperidin-1-yl]pyridin-3-yl}-6-{[(3S)-3-fluoropyrrolidin-1-yl]methyl}furo[3,2-b]pyridine-3-carboxamide] | 10 to 100 | ≤ 10 | ≤ 10
6 | COC1CCN(Cc2cnc3c(C(=O)Nc4cnccc4N4C[C@@H](N)C[C@@H](C(F)(F)F)C4)c(N)oc3c2)CC1 [Example 107, 2-Amino-N-{4-[(3S,5R)-3-amino-5-(trifluoromethyl)piperidin-1-yl]pyridin-3-yl}-6-[(4-methoxypiperidin-1-yl)methyl]furo[3,2-b]pyridine-3-carboxamide] | 10 to 100 | ≤ 10 | ≤ 10
7 | CN1CCN(Cc2cnc3c(C(=O)Nc4cnccc4N4C[C@@H](N)C[C@@H](C(F)(F)F)C4)c(N)oc3c2)CC1 [Example 108, 2-Amino-N-{4-[(3S,5R)-3-amino-5-(trifluoromethyl)piperidin-1-yl]pyridin-3-yl}-6-[(4-methylpiperazin-1-yl)methyl]furo[3,2-b]pyridine-3-carboxamide] | 10 to 100 | ≤ 10 | ≤ 10
8 | Cn1cc(-c2cnc3c(C(=O)Nc4cnccc4N4C[C@@H](N)C[C@@H](C(F)(F)F)C4)c(N)oc3c2)cn1 [Example 109, 2-Amino-N-{4-[(3S,5R)-3-amino-5-(trifluoromethyl)piperidin-1-yl]pyridin-3-yl}-6-(1-methyl-1H-pyrazol-4-yl)furo[3,2-b]pyridine-3-carboxamide] | 10 to 100 | ≤ 10 | ≤ 10
9 | C[C@@H]1C[C@H](N)CN(c2ccncc2NC(=O)c2c(N)oc3cc(-c4cnn(C)c4)cnc23)C1 [Example 110, 2-Amino-N-{4-[(3S,5R)-3-amino-5-methylpiperidin-1-yl]pyridin-3-yl}-6-(1-methyl-1H-pyrazol-4-yl)furo[3,2-b]pyridine-3-carboxamide] | 10 to 100 | ≤ 10 | ≤ 10
10 | Nc1oc2cc(-c3cncnc3)cnc2c1C(=O)Nc1cnccc1N1C[C@@H](N)C[C@@H](C(F)(F)F)C1 [Example 111, 2-Amino-N-{4-[(3S,5R)-3-amino-5-(trifluoromethyl)piperidin-1-yl]pyridin-3-yl}-6-pyrimidin-5-ylfuro[3,2-b]pyridine-3-carboxamide] | 10 to 100 | ≤ 10 | ≤ 10
11 | C[C@@H]1C[C@H](N)CN(c2ccncc2NC(=O)c2c(N)oc3cc(-c4cncnc4)cnc23)C1 [Example 112, 2-Amino-N-{4-[(3S,5R)-3-amino-5-methylpiperidin-1-yl]pyridin-3-yl}-6-pyrimidin-5-ylfuro[3,2-b]pyridine-3-carboxamide] | 10 to 100 | ≤ 10 | ≤ 10
12 | Nc1oc2cc(C3CC3)cnc2c1C(=O)Nc1cnccc1N1C[C@@H](N)C[C@@H](C(F)(F)F)C1 [Example 113, 2-Amino-N-{4-[(3S,5R)-3-amino-5-(trifluoromethyl)piperidin-1-yl]pyridin-3-yl}-6-cyclopropylfuro[3,2-b]pyridine-3-carboxamide] | ≤ 10 | ≤ 10 | ≤ 10
13 | C[C@@H]1C[C@H](N)CN(c2ccncc2NC(=O)c2c(N)oc3cc(C4CC4)cnc23)C1 [Example 114, 2-Amino-N-{4-[(3S,5R)-3-amino-5-methylpiperidin-1-yl]pyridin-3-yl}-6-cyclopropylfuro[3,2-b]pyridine-3-carboxamide] | ≤ 10 | ≤ 10 | ≤ 10
14 | Cc1cnc2c(C(=O)Nc3cnccc3N3C[C@@H](N)C[C@@H](C(F)(F)F)C3)c(N)oc2c1 [Example 115, 2-Amino-N-{4-[(3S,5R)-3-amino-5-(trifluoromethyl)piperidin-1-yl]pyridin-3-yl}-6-methylfuro[3,2-b]pyridine-3-carboxamide] | ≤ 10 | ≤ 10 | ≤ 10
15 | Cc1cnc2c(C(=O)Nc3cnccc3N3C[C@H](C)C[C@H](N)C3)c(N)oc2c1 [Example 116, 2-Amino-N-{4-[(3S,5R)-3-amino-5-methylpiperidin-1-yl]pyridin-3-yl}-6-methylfuro[3,2-b]pyridine-3-carboxamide] | 10 to 100 | ≤ 10 | ≤ 10
16 | CCc1cnc2c(C(=O)Nc3cnccc3N3C[C@H](C)C[C@H](N)C3)c(N)oc2c1 [Example 117, 2-Amino-N-{4-[(3S,5R)-3-amino-5-methylpiperidin-1-yl]pyridin-3-yl}-6-ethylfuro[3,2-b]pyridine-3-carboxamide] | ≤ 10 | ≤ 10 | ≤ 10
17 | CCc1cnc2c(C(=O)Nc3cnccc3N3C[C@@H](N)C[C@@H](C(F)(F)F)C3)c(N)oc2c1 [Example 118, 2-Amino-N-{4-[(3S,5R)-3-amino-5-(trifluoromethyl)piperidin-1-yl]pyridin-3-yl}-6-ethylfuro[3,2-b]pyridine-3-carboxamide] | ≤ 10 | ≤ 10 | ≤ 10
18 | C[C@@H]1C[C@H](N)CN(c2ccncc2NC(=O)c2c(N)oc3cc(-c4c(F)cccc4F)cnc23)C1 [Example 119, 2-Amino-N-{4-[(3S,5R)-3-amino-5-methylpiperidin-1-yl]pyridin-3-yl}-6-(2,6-difluorophenyl)furo[3,2-b]pyridine-3-carboxamide] | 10 to 100 | ≤ 10 | ≤ 10
19 | C[C@@H]1C[C@H](N)CN(c2ccncc2NC(=O)c2c(N)oc3cc(OC(F)F)cnc23)C1 [Example 120, 2-Amino-N-(4-((3S,5R)-3-amino-5-methylpiperidin-1-yl)pyridin-3-yl)-6-(difluoromethoxy)furo[3,2-b]pyridine-3-carboxamide] | 10 to 100 | ≤ 10 | ≤ 10
20 | CC(C)Oc1cnc2c(C(=O)Nc3cnccc3N3C[C@H](C)C[C@H](N)C3)c(N)oc2c1 [Example 121, 2-Amino-N-(4-((3S,5R)-3-amino-5-methylpiperidin-1-yl)pyridin-3-yl)-6-isopropoxyfuro[3,2-b]pyridine-3-carboxamide] | 10 to 100 | ≤ 10 | ≤ 10
21 | C[C@@H]1C[C@H](N)CN(c2ccncc2NC(=O)c2c(N)oc3cc(C4CCOC4)cnc23)C1 (stereo partly drawn) [Example 122, 2-Amino-N-(4-((3S,5R)-3-amino-5-methylpiperidin-1-yl)pyridin-3-yl)-6-(tetrahydrofuran-3-yl)furo[3,2-b]pyridine-3-carboxamide] | ≤ 10 | ≤ 10 | ≤ 10
22 | Nc1oc2cc(C3CCOC3)cnc2c1C(=O)Nc1cnccc1N1C[C@@H](N)C[C@@H](C(F)(F)F)C1 (stereo partly drawn) [Example 123, 2-Amino-N-{4-[(3S,5R)-3-amino-5-(trifluoromethyl)piperidin-1-yl]pyridin-3-yl}-6-(tetrahydrofuran-3-yl)furo[3,2-b]pyridine-3-carboxamide] | ≤ 10 | ≤ 10 | ≤ 10
23 | C[C@H]1CN(c2ccncc2NC(=O)c2c(N)oc3cc(C4CCC4)cnc23)C[C@@H](N)[C@@H]1O [Example 124, 2-Amino-N-{4-[(3R,4R,5S)-3-amino-4-hydroxy-5-methylpiperidin-1-yl]pyridin-3-yl}-6-cyclobutylfuro[3,2-b]pyridine-3-carboxamide] | ≤ 10 | ≤ 10 | ≤ 10
24 | Nc1oc2cc(C3CCC3)cnc2c1C(=O)Nc1cnccc1N1C[C@@H](N)[C@H](O)[C@@H](C2CC2)C1 [Example 125, 2-Amino-N-{4-[(3R,4R,5S)-3-amino-5-cyclopropyl-4-hydroxypiperidin-1-yl]pyridin-3-yl}-6-cyclobutylfuro[3,2-b]pyridine-3-carboxamide] | ≤ 10 | ≤ 10 | ≤ 10

Reference: US10000507B2, “Furo- and thieno-pyridine carboxamide compounds useful as pim kinase inhibitors” (Incyte Corporation, priority 2013, dated 2018)
